Earlier results on two molecules are cited in US10589003B2, “Methods for coating surfaces with antimicrobial agents” (The Board of Regents of the University of Texas System, priority 2005, dated 2020).

For the data set, the system named is Pseudomonas aeruginosa. As to conditions: agent on its own; gentian violet after impregnating polymer surfaces incl. polyvinylchloride.

On to `[H]/N=C(\N/C(=N/[H])NCCCCCCNC(=N)NC(=N)Nc1ccc(Cl)cc1)Nc1ccc(Cl)cc1` [chlorhexidine], for which the “activity against Pseudomonas aeruginosa” value is given as “not highly active”.
Regarding `CN(C)c1ccc(C(=C2C=CC(=[N+](C)C)C=C2)c2ccc(N(C)C)cc2)cc1` [gentian violet], the “activity against Pseudomonas aeruginosa” value is “no activity”.
